Source: the NIST ThermoML archive (doi:10.1016/j.fluid.2014.06.015)
Numbers after ± are expanded uncertainties.

How the values were obtained:
[1] = 298.15 K; 101.33 kPa; Liquid; Vibrating tube method
[2] = refractive index (Na D-line) (dimensionless); conditions: 298.15 K; 101.33 kPa; Liquid; Standard Abbe refractometry

Row | mass density [1] | refractive index [2] | Compound
1 | 802.35 ± 0.13 kg/m3 | 1.3936 ± 0.0005 | CCC(C)O (configuration not stated) [butan-2-ol]
2 | 1258.52 ± 0.22 kg/m3 | 1.4726 ± 0.0005 | OCC(O)CO [glycerol]
3 | – | 1.3325 ± 0.0005 | O [water]

Row | Compound | mass density [1] | refractive index [2]
4 | CCC(C)(C)O [2-methylbutan-2-ol] | 804.21 ± 0.24 kg/m3 | 1.4026 ± 0.0005
